Data reported in US20110105457A1, “HETEROCYCLIC COMPOUND HAVING INHIBITORY ACTIVITY ON PI3K” (SHIONOGI & CO., LTD., priority 2008, published 2011).

Key:
PI-3 kinase γ = PI-3 kinase γ (Homo sapiens, UniProt P48736); assay: PI3Kγ inhibitory activity, PI3-kinase HTRF assay (Millipore); type: biochemical; conditions: 0.5 h; compound 50 μM; read-out: Inhibition ratio % (50 μM)
Protocol: (Method) The PI3Kγ inhibitory activity of a compound was evaluated using PI3-kinase HTRF™ assay (Millipore) according to the following procedure.
To each well of a testing plate was added 5 μL of a compound solution comprising 10% DMSO (200 μM as the concentration of the compound), 5 μL of 40 μM phosphatidylinositol (4,5)-bisphosphate/20 mM MgCl2/10 mM DTT, and 5 μL of 80 μg/mL PI-3 kinase γ/10 mM MgCl2/5 mM DTT, and then stood for 10 minutes.
Then, 5 μL of 40 μM ATP/10 mM MgCl2/5 mM DTT was added thereto. After reacting for 30 minutes at room temperature, 5 μL of a solution comprising EDTA and biotinylated phosphatidylinositol (3,4,5)-triphosphate was added to quench the reaction.
5 μL of a detection reagent comprising a europium-labeled anti-GST antibody, the GST-tagged PH domain, and allophycocyanin-labeled streptavidin was added thereto. After 18 hours, HTRF (excitation wavelength: 330 nm, measuring wavelengths: 620 nm and 665 nm) was measured.
A value of dividing an amount of fluorescence obtained at the measuring wavelength 665 nm by an amount of fluorescence obtained at 620 nm was defined as an HTRF ratio. The HTRF ratio in the absence of a compound was defined as 100% activity, and the HTRF ratio in the absence of PI-3 kinase γ was defined as 0% activity to calculate an inhibition ratio.

Solubility test = type: physicochemical; conditions: 25 °C, fassgf or other biorelevant, kinetic from dmso stock, artificial intestinal juice pH 6.8, 1% DMSO, 25 degrees Celsius
Protocol: 10 mM compound solution was prepared using DMSO, and then 6 μL of the compound solution was added to 594 μL of artificial intestinal juice in pH 6.8 (to 250 mL of 0.2 mol/L potassium dihydrogen phosphate reagent solution was added 118 mL of 0.2 mol/L NaOH reagent solution and water to provide a final volume of 1000 mL). After standing at 25 degrees Celsius for 16 hours, the mixed solution was filtrated with suction. The filtrate was diluted twice with methanol/water (1/1), and then a concentration in the filtration was measured with HPLC or LC/MS/MS by the absolute calibration method.

[1] = Metabolic stability test, pooled human liver microsome; type: in vitro ADME; conditions: human liver microsome 0.5 mg protein/mL, NADPH, 37 degrees Celsius, 30 minutes
Protocol: After a subject compound was reacted for a certain time using a pooled human liver microsome commercially available, a reacted sample and an unreacted sample are compared to calculate a survival ratio, and then the degree of metabolism in the liver was evaluated.
0.2 mL of a buffer solution (50 mmol/L of Tris-HCl in pH 7.4, 150 mmol/L of potassium chloride, and 10 mmol/L of magnesium chloride) containing a human liver microsome of 0.5 mg protein/mL was reacted in the presence of 1 mmol/L NADPH at 37 degrees Celsius for 0 or 30 minutes (oxidative reaction). After reacting, 50 μL of the reaction solution was added to 100 μL of a solution of methanol/acetonitrile (1/1(v/v)), mixed, and then centrifuged at 3000 rpm for 15 minutes. A test compound in the supernatant was quantitated with LC/MS/MS. An amount of the compound remained at a reaction time of 0 minute was defined as 100%, and, based on that, an amount of the test compound remained after the reaction was calculated.

[2] = biological target: T1, human ether-a-go-go related gene (hERG) channel (Homo sapiens, UniProt Q12809); assay: hERG test, whole-cell patch-clamp in HEK293 cells; type: cell-based; conditions: HEK293 cells expressing hERG; concentration not given
T1 construct: expressed in transfected cells; host or cells: HEK293
T1 sequence (Q12809 whole entry): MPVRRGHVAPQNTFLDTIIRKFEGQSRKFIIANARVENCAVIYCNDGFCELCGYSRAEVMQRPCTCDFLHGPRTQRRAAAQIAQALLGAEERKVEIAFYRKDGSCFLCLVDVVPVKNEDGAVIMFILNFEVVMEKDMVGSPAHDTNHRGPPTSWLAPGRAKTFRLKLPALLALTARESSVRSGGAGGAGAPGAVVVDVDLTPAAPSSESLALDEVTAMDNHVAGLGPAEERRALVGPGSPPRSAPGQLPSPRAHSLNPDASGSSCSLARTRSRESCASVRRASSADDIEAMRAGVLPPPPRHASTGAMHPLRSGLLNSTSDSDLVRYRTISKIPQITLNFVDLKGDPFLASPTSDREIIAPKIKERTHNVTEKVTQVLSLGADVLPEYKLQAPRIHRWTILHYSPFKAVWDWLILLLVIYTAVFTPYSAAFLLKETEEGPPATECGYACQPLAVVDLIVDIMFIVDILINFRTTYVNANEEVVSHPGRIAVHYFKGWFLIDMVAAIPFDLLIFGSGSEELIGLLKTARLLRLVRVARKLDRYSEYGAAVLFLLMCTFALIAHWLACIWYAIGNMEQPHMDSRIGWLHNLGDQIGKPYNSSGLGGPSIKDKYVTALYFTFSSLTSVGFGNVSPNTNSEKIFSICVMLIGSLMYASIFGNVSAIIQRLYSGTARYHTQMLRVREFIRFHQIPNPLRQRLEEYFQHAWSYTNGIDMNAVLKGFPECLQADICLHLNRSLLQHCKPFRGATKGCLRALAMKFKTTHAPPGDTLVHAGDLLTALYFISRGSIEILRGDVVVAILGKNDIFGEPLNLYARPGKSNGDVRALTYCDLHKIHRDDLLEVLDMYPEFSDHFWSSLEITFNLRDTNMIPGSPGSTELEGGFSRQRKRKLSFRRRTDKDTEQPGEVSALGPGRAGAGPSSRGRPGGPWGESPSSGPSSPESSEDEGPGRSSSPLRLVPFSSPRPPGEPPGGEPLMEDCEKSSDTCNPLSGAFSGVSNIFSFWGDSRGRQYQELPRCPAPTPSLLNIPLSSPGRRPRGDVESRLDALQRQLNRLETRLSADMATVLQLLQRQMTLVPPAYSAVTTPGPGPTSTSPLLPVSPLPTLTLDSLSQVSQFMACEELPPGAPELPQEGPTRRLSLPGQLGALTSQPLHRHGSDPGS
Excerpt: For the purpose of a risk evaluation of QT interval extension of electrocardiogram, using the HEK293 cell that was made express human ether-a-go-go related gene (hERG) channel, the activity on delayed rectification K^+ current (IKr) playing an important role in a cardiac ventricle repolarization process was examined.
Using an automatic patch-clamp system (PatchXpress 7000A, Axon Instruments Inc.), by a whole-cell patch-clamp method, after the cell was maintained at a membrane potential of −80 mV, IKr induced on giving depolarizing stimulation of +50 mV for 2 seconds and further repolarizing stimulation of −50 mV for 2 seconds was recorded. After generated current became stable, extracellular fluid (NaCl: 137 mmol/L, KCl: 4 mmol/L, CaCl2.2H2O: 1.8 mmol/L, MgCl2.6H2O: 1 mmol/L, glucose: 10 mmol/L, HEPES (4-(2-hydroxyethyl)-1-piperazineethanesulfonic acid): 10 mmol/L, pH=7.4) dissolving a test substance at an intended concentration was applied to the cell for 10 minutes under room temperature condition. From the IKr obtained, using an analysis soft (DataXpress ver. 1, Molecular Devices Corporation), a current value in a membrane potential maintained was used as a standard, and the absolute value of the maximum tail current was measured. Moreover, an inhibition ratio for the maximum tail current prior to the application of the test substance was calculated, and then compared with a group of media-application (0.1% dimethylsulfoxide solution) to evaluate influence of the test substance on IKr.

Sequence of PI-3 kinase γ (P48736 whole entry): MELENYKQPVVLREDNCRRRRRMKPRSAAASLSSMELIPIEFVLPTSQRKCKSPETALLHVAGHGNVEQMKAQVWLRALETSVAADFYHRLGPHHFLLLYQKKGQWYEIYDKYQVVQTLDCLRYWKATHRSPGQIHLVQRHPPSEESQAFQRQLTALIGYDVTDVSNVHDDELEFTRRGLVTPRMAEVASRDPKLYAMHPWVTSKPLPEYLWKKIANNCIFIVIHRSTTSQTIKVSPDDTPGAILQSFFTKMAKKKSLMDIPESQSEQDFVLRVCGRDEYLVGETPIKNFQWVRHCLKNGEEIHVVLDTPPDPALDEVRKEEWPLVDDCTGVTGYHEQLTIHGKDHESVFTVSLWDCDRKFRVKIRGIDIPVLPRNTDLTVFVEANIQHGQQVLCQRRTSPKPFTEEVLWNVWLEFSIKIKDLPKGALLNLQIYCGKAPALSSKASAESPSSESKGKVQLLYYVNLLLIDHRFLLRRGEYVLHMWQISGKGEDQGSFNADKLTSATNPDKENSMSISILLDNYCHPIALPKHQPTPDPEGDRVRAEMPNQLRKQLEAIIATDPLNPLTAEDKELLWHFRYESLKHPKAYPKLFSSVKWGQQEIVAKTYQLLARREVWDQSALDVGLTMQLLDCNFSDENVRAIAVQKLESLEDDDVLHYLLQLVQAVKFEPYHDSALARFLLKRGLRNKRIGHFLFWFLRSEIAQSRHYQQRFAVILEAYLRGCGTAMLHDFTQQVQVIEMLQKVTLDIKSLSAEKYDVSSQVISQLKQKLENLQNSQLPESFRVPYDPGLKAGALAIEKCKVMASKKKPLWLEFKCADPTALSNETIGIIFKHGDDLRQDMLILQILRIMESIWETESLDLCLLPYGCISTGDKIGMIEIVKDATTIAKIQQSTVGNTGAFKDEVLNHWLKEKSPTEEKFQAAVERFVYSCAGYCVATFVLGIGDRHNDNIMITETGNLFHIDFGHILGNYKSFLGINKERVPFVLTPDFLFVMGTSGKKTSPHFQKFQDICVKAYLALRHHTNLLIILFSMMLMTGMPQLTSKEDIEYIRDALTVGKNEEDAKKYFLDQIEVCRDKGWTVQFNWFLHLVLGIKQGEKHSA

Row | SMILES | inhibition at 50 µM (PI-3 kinase γ) | other results
1 | CNC(=O)Nc1cn2nc(-c3cccc(C(=O)O)c3)ccc2n1 [Compound I-28] | 89% | solubility at 16 h (Solubility test): > 50 µM; Amount of the test compound remained after the reaction [1]: 98.6%
2 | CNC(=O)Nc1cn2nc(-c3cccc(C(N)=O)c3)ccc2n1 [Compound I-29] | 84% | Amount of the test compound remained after the reaction [1]: 98.8%
3 | CNC(=O)Nc1cn2nc(-c3cccc(S(C)(=O)=O)c3)ccc2n1 [Compound I-75] | 84% | solubility at 16 h (Solubility test): > 50 µM
4 | COc1cccc(-c2ccc3nc(NC(=O)Nc4ccccc4)cn3n2)c1 [Compound I-118] | 64% | Amount of the test compound remained after the reaction [1]: 95.9%
5 | CNC(=O)Nc1cn2nc(-c3cccc(CCCO)c3)ccc2n1 [Compound I-136] | 79% | solubility at 16 h (Solubility test): > 50 µM
6 | CNC(=O)Nc1cn2nc(-c3cccc(C(=O)N4CCCC4)c3)ccc2n1 [Compound I-137] | 81% | Inhibition ratio for the maximum tail current (IKr) [2]: 8.4%
7 | CNC(=O)Nc1cn2nc(-c3cccc(N(C)C)c3)ccc2n1 [Compound I-143] | 102% | Inhibition ratio for the maximum tail current (IKr) [2]: 7.8%
8 | COc1cccc(-c2ccc3nc(NC(=O)c4ccccc4Cl)cn3n2)c1 [Compound I-163] | 58% | Amount of the test compound remained after the reaction [1]: 98.1%
9 | CCC(C)C(=O)Nc1cn2nc(-c3cccc(OC)c3)ccc2n1 (stereo not drawn) [Compound I-182] | 98% | Inhibition ratio for the maximum tail current (IKr) [2]: 9.3%
10 | CCOC(=O)c1nc[nH]c1C(=O)Nc1cn2nc(-c3cccc(OC)c3)ccc2n1 [Compound I-208] | – | Inhibition ratio for the maximum tail current (IKr) [2]: 0.5%
11 | COc1cccc(-c2ccc3nc(NC(=O)CCCn4cncn4)cn3n2)c1 [Compound I-210] | 85% | Amount of the test compound remained after the reaction [1]: 97%
12 | COc1cccc(-c2ccc3nc(NC(=O)NCC(=O)OC(C)(C)C)cn3n2)c1 [Compound I-248] | 71% | Inhibition ratio for the maximum tail current (IKr) [2]: 6.7%
13 | COc1cccc(-c2ccc3nc(NC(=O)NCc4nccs4)cn3n2)c1 [Compound I-255] | 75% | –
14 | CCOC(=O)CCCNC(=O)Nc1cn2nc(-c3cccc(OC)c3)ccc2n1 [Compound I-257] | 83% | –
15 | COc1cccc(-c2ccc3nc(NC(=O)NCC4COCCO4)cn3n2)c1 (stereo not drawn) [Compound I-258] | 76% | –
16 | CCOC(=O)CCNC(=O)Nc1cn2nc(-c3cccc(OC)c3)ccc2n1 [Compound I-259] | 68% | –
17 | COC[C@H]1CCCN1C(=O)Nc1cn2nc(-c3cccc(OC)c3)ccc2n1 [Compound I-261] | 59% | –
18 | COc1cccc(-c2ccc3nc(NC(=O)NCCNC(=O)OC(C)(C)C)cn3n2)c1 [Compound I-263] | 71% | –
19 | COc1cccc(-c2ccc3nc(NC(=O)NCCN)cn3n2)c1 [Compound I-264] | 67% | –
20 | COc1cccc(-c2ccc3nc(NC(=O)NCCC(=O)N4CCOCC4)cn3n2)c1 [Compound I-268] | 62% | –

Row | SMILES | inhibition at 50 µM (PI-3 kinase γ) | other results
21 | COc1cccc(-c2ccc3nc(NC(=O)NN4CCc5ccccc54)cn3n2)c1 [Compound I-269] | 64% | –
22 | COc1cccc(-c2ccc3nc(NC(=O)NCCO)cn3n2)c1 [Compound I-270] | 82% | solubility at 16 h (Solubility test): > 50 µM
23 | COc1cccc(-c2ccc3nc(NC(=O)NC4CCN(S(=O)(=O)C(C)C)CC4)cn3n2)c1 [Compound I-271] | 53% | –
24 | COc1cccc(-c2ccc3nc(NC(=O)NCCC(=O)NC(C)(C)C)cn3n2)c1 [Compound I-272] | 61% | –
25 | COc1cccc(-c2ccc3nc(NC(=O)NCCC(=O)OC(C)(C)C)cn3n2)c1 [Compound I-273] | 85% | –
26 | COc1cccc(-c2ccc3nc(NC(=O)NN(C)C)cn3n2)c1 [Compound I-276] | 87% | –
27 | COc1cccc(-c2ccc3nc(NC(=O)NCCCN)cn3n2)c1 [Compound I-278] | 81% | –
28 | COc1cccc(-c2ccc3nc(NC(=O)NCCC(N)=O)cn3n2)c1 [Compound I-279] | 83% | –
29 | CNC(=O)Nc1cn2nc(C(=O)c3ccccc3)ccc2n1 [Compound I-280] | 92% | Inhibition ratio for the maximum tail current (IKr) [2]: 5.8%
30 | CNC(=O)Nc1cn2nc(Sc3cccc(OC)c3)ccc2n1 [Compound I-281] | 78% | –
31 | CNC(=O)Nc1cn2nc(Cc3cccc(OC)c3)ccc2n1 [Compound I-282] | 78% | –
32 | COc1cccc(-c2ccc3nc(Nc4cccc(C(C)=O)c4)cn3n2)c1 [Compound I-283] | 86% | –
33 | COc1cccc(-c2ccc3nc(Nc4cccc(CO)c4)cn3n2)c1 [Compound I-284] | 111% | –
34 | COC(=O)c1cccc(Nc2cn3nc(-c4cccc(OC)c4)ccc3n2)c1 [Compound I-285] | 96% | –
35 | COc1cccc(-c2ccc3nc(Nc4cccc([N+](=O)[O-])c4)cn3n2)c1 [Compound I-286] | 87% | –
36 | COc1ccc(Nc2cn3nc(-c4cccc(OC)c4)ccc3n2)cc1 [Compound I-287] | 101% | –
37 | COc1cccc(-c2ccc3nc(Nc4ccc(OCCO)cc4)cn3n2)c1 [Compound I-288] | 107% | –
38 | COc1cccc(-c2ccc3nc(Nc4ccc(CO)cn4)cn3n2)c1 [Compound I-289] | 127% | –
39 | COc1cccc(-c2ccc3nc(Nc4cccc(O)n4)cn3n2)c1 [Compound I-290] | 92% | –
40 | COc1cccc(-c2ccc3nc(NC(C)=O)cn3n2)c1 [Compound I-291] | 74% | –
